In the METLIN SMRT retention time set (Domingo-Almenara et al. 2019) one finds RP-LC retention time data, which are given here for 32 compounds.

This series can be described thus: gradient 5% acetonitrile 3 min, to 50% in 2 min, to 85% in 15 min, held 3 min, 100 µL/min. As to conditions: column: Zorbax Extend-C18 2.1 x 50 mm; eluents: water / acetonitrile, 0.1% formic acid. A digest of the protocol:
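Standards, all pure, were combined into mixtures of ~100 molecules and run at 100 μL/min on a Zorbax Extend-C18 column (2.1 × 50 mm, 1.8 μm) with water and acetonitrile, each containing 0.1% formic acid. A coupled quadrupole time-of-flight mass spectrometer operated in positive and negative ionization mode. Retention time values come from computationally picked adduct peaks, each inspected manually.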
For `CCN1C(SCC(=O)Nc2c(C)cc(C)cc2C)=NS(=O)(=O)c2ccccc21`, the RP-LC retention time came to 788 s.

Take `COc1ccc(-c2ncc3c(n2)CCN(S(=O)(=O)c2cccc(Cl)c2C)C3)cc1`: the RP-LC retention time was 1180 s.

Turning to `CCOc1ccc(CC(=O)N2C[C@@H]3C[C@H](NC(=O)c4ccccc4)[C@H]2C3)cc1`, the RP-LC retention time was found to be 799 s.

The compound `CN1C2CCC1CC(OC(=O)c1cc(Cl)cc(Cl)c1)C2` (configuration not stated) displayed an RP-LC retention time of 669 s.

As for `COc1ccc(OC)c(S(=O)(=O)N2CCC(n3cnc4c(C)cccc4c3=O)CC2)c1`, the RP-LC retention time was found to be 918 s.

`CCCn1c(=O)c(C)nc2cc(-c3noc(C4CC(=O)N(c5ccc(C)cc5)C4)n3)ccc21` (configuration not stated) yielded an RP-LC retention time of 927 s.

In turn, `CCc1ccc(CNC(=O)C2CCCN(c3nccnc3Oc3ccc(C)cc3)C2)cc1` (configuration not stated) showed an RP-LC retention time of 1150 s.

`Cc1ccc(C(=O)NCCc2nc3cccnc3n2C(C)C)cc1` returned an RP-LC retention time of 666 s.

Regarding `COCCNC(=O)CSc1nccc2c1ccn2Cc1ccc(F)cc1`, the RP-LC retention time amounted to 668 s.

Take `CC1=C(c2ccc(C)cc2)S(=O)(=O)N=C1N1CCCN(C(=O)NC2CCCCC2)CC1`: the RP-LC retention time stood at 890 s.

Take `CC1CCN(C(=O)c2cc3c(s2)CCC(C(=O)NCCCN2CCOCC2)C3)CC1` (configuration not stated): the RP-LC retention time stood at 542 s.

Compound `O=C(NCc1ccccn1)c1ccc(NC(=O)C2CC2)cc1N1CCCCCC1` displayed an RP-LC retention time of 593 s.

With `CCOC(=O)Cc1csc(NC(=O)c2ccc(-c3nc4ccccc4s3)s2)n1`, the RP-LC retention time was found to be 1010 s.

Consider `O=[N+]([O-])c1ccc(-c2nc(N3CCOCC3)c3ccccc3n2)cc1`, for which the RP-LC retention time is 833 s.

On to `CCCN1CCN(CCCNC(=O)CN2C(=O)CCn3nc(-c4cn(C)c5ccccc45)cc32)CC1`, for which the RP-LC retention time was 589 s.

As for `O=C(Cn1nc2c(cc1=O)CCCC2)N[C@@H](Cc1ccccc1)C(=O)O`, the RP-LC retention time was 682 s.

`CCc1nccn1Cc1noc(-c2ccccc2)n1` came in with an RP-LC retention time of 634 s.

The compound `O=C(NC1CC1)C1CCN(Cc2cc3ccccc3n2Cc2cccc(Cl)c2)CC1` had an RP-LC retention time of 730 s.

`O=S(=O)(c1cccc(F)c1)N1CC(c2nc(CCOCC3CCOCC3)no2)C1` came in with an RP-LC retention time of 686 s.

With `CCN1C(=O)COc2ccc(-c3noc(C4CC(=O)N(c5ccc(C)cc5)C4)n3)cc21` (configuration not stated), the RP-LC retention time is 878 s.

With `Cc1ccc(Nc2c(-c3ccc(Cl)cc3)nc3nc(C)cc(C)n23)cc1`, the RP-LC retention time was 827 s.

Consider `Cc1cc(C)cc(NS(=O)(=O)c2cc3c(s2)CCN(C(=O)C2CCC2)C3)c1`, for which the RP-LC retention time came out at 962 s.

On to `Clc1ccccc1N1CCN(c2ncnc3[nH]ncc23)CC1`, for which the RP-LC retention time turned out to be 660 s.

The compound `O=C(c1ccsc1)N1CCCC(c2nc(-c3ccccc3)n[nH]2)C1` (configuration not stated) showed an RP-LC retention time of 716 s.

Compound `COc1ccccc1N1CCN(Cc2nc(-c3ccc(N4CCCCC4)nc3)no2)CC1` registered an RP-LC retention time of 757 s.

Compound `COc1ccccc1-c1noc(C2CCCN2C(=O)NC(C)C)n1` (configuration not stated) came in with an RP-LC retention time of 753 s.

As for `O=C1N(c2cccc(F)c2)c2ncccc2S(=O)(=O)N1Cc1ccc(F)cc1`, the RP-LC retention time is 1040 s.

In the case of `CN(C)c1cccc(C(=O)N2CCN(c3cc(-c4ccccc4)[nH]n3)CC2)c1`, the RP-LC retention time was found to be 690 s.

Compound `Cc1cc(C)n(CCC(=O)N2C[C@H]3C[C@H](C2)[C@H]2CCCC(=O)N2C3)n1` gave an RP-LC retention time of 600 s.

For `Cc1cc(C)c(S(=O)(=O)Nc2cccc(C(F)(F)F)c2)c(C)c1`, the RP-LC retention time turned out to be 1100 s.

Compound `COc1ccc(CN2CCC([C@@H]3CNC[C@H]3CO)CC2)cc1Cn1ccnc1` registered an RP-LC retention time of 572 s.

`CCCc1ccc(-c2cc(C(=O)N3CCN(c4ccccn4)CC3)c3ccccc3n2)cc1` registered an RP-LC retention time of 857 s.
